Data set [1] in a line: In vivo A431 xenograft body weight change. The note with it: nude mice, 10 mg/kg. The method, then:
(§1) A representative protocol for the in vivo experiment to establish the subcutaneous A431 cell line xenograft model in nude mice and to evaluate the in vivo therapeutic efficacy of the compounds is similar to the protocol described for subcutaneous NCI—H1975 cell line xenograft model in nude mice. […] Tumor growth inhibition (TGI, %) was calculated.

Data set [2] can be described thus: In vivo NCI-H1975 xenograft study body weight change. Conditions: nude mice, 15 mg/kg. Here is the method:
(§2) A representative protocol for the in vivo experiment is as followed to establish the subcutaneous NCI-H1975 cell line xenograft model in nude mice and to evaluate the in vivo therapeutic efficacy of the compounds: H1975 cells were cultured in RPMI1640 containing 10% fetal bovine serum, 1% L-glutamine, 100 U/mL penicillinG and 100 μg/mL streptomycin. Cells in logarithmic growth phase were harvested and resuspended in 1×PBS for implantation. Tumor xenografts were established by injecting tumor cells 5×10^6/mouse into the right flank by sc under sterile conditions. When the tumors reached an appropriate size (100-200 mm^3), mice were randomized into 6 mice per group (8 mice in control group). The tumors were measured using a caliper in two dimensions, length (a), and width (b). Tumor volumes were estimated from measurements of two diameters of the individual tumors as follows: Tumor Volume(mm^3)=(a×b^2)/2 The tumor sizes and animal body weights were measured twice a week. Mice were observed daily for clinical signs. Blood samples were collected 2 hours after last treatment, plasma samples were prepared and stored at -80° C. Tumor tissues were separated, weighed, taken picture, and subsequently stored at -80° C. for further analysis. All animal experiments were performed in accordance with the Guidelines for Use and Care of Animals of the University of Traditional Medicine. The parameters for in vivo efficacy evaluation were calculated according to the guidance of SFDA. Percent T/C (%) was calculated with the following formula: T/C (%)=(TRTV/CRTV)×100%, where TRTV and CRTV stand for relative tumor volume in treatment group and vehicle control group, respectively. Relative tumor volume (RTV) was calculated using the formula: RTV=Vt/V0, where Vt represents volume on testing day, and V0 represents volume on first day of treatment.

Data set [3] can be described thus: In vivo NCI-H1975 study AST and ALT change. Conditions: NCI-H1975 xenograft, nude mice, 15 mg/kg; in U/L (unit assumed). Here is the method:
as §2

Another data set has as its system SK—OV-3. Description: Cell proliferation assay (MTT), SK-OV-3. In kind it is cell-based. Conditions: Homo sapiens, SK—OV-3 cells, 72 hours, read-out: potency (IC50), SK—OV-3 cell assay. Here is the method:
(§3) A Representative Number of Compounds were Assayed Against Different Cancer Cell Lines Such as A431, BT474, NCI—H1975, SK—OV-3, SK—Br-3 and A549 Using the Cell Proliferation Assays:
(§4) 1. 5×10^3 cells per well in 100 μl of medium were seeded in 96-well plate, here the medium contained 5% FBS
(§5) 2. 24 hours later, 100 μl fresh medium was added with various concentrations of compounds into each well, while the medium here was free of FBS.
(§6) 3. After the cells were treated with compounds for 72 hours, 20 μl MTT (5 mg/ml) was added into each well, and then the assay plate was incubated at 37° C. for 4 more hours.
(§7) 4. The assay plate was centrifuged at 800 g for 10 min. The medium was aspirated, 150 μl DMSO was added into each well. The plate was gently shaken for 10 min.
(§8) 5. The absorbance at 570 nm was measured on the plate reader.

The test system of a further data set is A549. Nature of the data set: Cell proliferation assay (MTT), A549. In kind it is cell-based. The note with it: Homo sapiens, A549 cells, 72 hours, read-out: potency (IC50), A549 cell assay. Here is the method:
as §3, §4, §5, §6, §7, §8

In the next data set the test system is SK—Br-3. Description: Cell proliferation assay (MTT), SK-Br-3. Type of data set: cell-based. The note with it: Homo sapiens, SK—Br-3 cells, 72 hours, read-out: potency (IC50), SK—Br-3 cell assay. The method, then:
as §3, §4, §5, §6, §7, §8

The next data set has as its system NCI—H1975. Nature of the data set: Cell proliferation assay (MTT), NCI-H1975. In kind it is cell-based. Conditions: Homo sapiens, NCI—H1975 cells, 72 hours, read-out: potency (IC50), NCI—H1975 cell assay. Here is the method: as §3, §4, §5, §6, §7, §8
A short description of data set [4]: Solubility measurement (HPLC). In kind it is physicochemical. The note with it: thermodynamic from solid. The method, then: The compound was diluted with acetonitrile to 100 mL.
The solution was shook for 2 minutes and left for 30 minutes at 25° C. After standing for 30 minutes, precipitate was formed in the bottom of the EP. The solutions was filtered through 0.2 um membrane filter, and then diluted by 50 times with water.
The standard and sample solutions were injected into the HPLC on a Shim-Pack CLC-ODS C18 column (150 mm×6.0 mm, 5 um) with the same volume. The mobile phase consisted of acetonitrile with 2% […] −20 mM KH2PO4 buffer (pH=6.8) at a flow rate of 1 mL/minutes (40:60). The detection wavelength is at 264 nm. Calculation: solubility of sample=the concentration of standard×Area of sample×50/Area of standard.

The next data set relates to A431 cell line xenograft. Nature of the data set: In vivo subcutaneous A431 xenograft efficacy. Conditions: nude mice, 10 mg/kg by oral gavage once daily for 14 days. Here is the method:
as §1

The next data set concerns A431. Nature of the data set: Cell proliferation assay (MTT), A431. Type of data set: cell-based. Conditions: Homo sapiens, A-431, A431 cells, 72 hours. The method, then: as §3, §4, §5, §6, §7, §8
The subject of another data set is BT474. Nature of the data set: Cell proliferation assay (MTT), BT474. Type of data set: cell-based. Conditions: Homo sapiens, BT-474, BT474 cells, 72 hours. The method, then: as §3, §4, §5, §6, §7, §8
Another data set deals with EGFR (T790M/L858R) (Homo sapiens (Human), UniProt P00533, L858R/T790M). Description: In vitro EGFR (T790M/L858R) kinase activity inhibition assay (Kinase-Glo Plus luminescence). In kind it is biochemical. Conditions: 10 μM ATP, read-out: potency (IC50), enzyme assay (EGFR/T790M). The method, then: 2. […] It measures kinase activity by quantitating the amount of ATP remaining in solution following a kinase reaction. The luminescent signal from the assay is correlated with the amount of ATP present and is inversely correlated with the amount of kinase activity. […] Luminescence signal was measured using a BioTek Synergy 2 microplate reader.
3. […] The luminescence data were analyzed using the computer software, Graphpad Prism. […] The IC50 value was determined by the concentration causing a half-maximal percent activity.
For orientation: Kinase-Glo reads ATP consumption through a luciferase reaction.

Data set [5] has as its system NCI—H1975 cell line xenograft. Nature of the data set: In vivo subcutaneous NCI-H1975 xenograft efficacy. The note with it: nude mice. The method, then: A representative protocol for the in vivo experiment is as followed to establish the subcutaneous NCI—H1975 cell line xenograft model in nude mice and to evaluate the in vivo therapeutic efficacy of the compounds: H1975 cells were cultured in RPMI1640 containing 10% fetal bovine serum, 1% L-glutamine, 100 U/mL penicillinG and 100 μg/mL streptomycin. Cells in logarithmic growth phase were harvested and resuspended in 1×PBS for implantation.
Tumor xenografts were established by injecting tumor cells 5×10^6/mouse into the right flank by sc under sterile conditions. When the tumors reached an appropriate size (100-200 mm^3), mice were randomized into 6 mice per group (8 mice in control group). The tumors were measured using a caliper in two dimensions, length (a), and width (b). […]
The tumor sizes and animal body weights were measured twice a week. […] The parameters for in vivo efficacy evaluation were calculated according to the guidance of SFDA. Percent T/C (%) was calculated with the following formula: T/C (%)=(TRTV/CRTV)×100%, where TRTV and CRTV stand for relative tumor volume in treatment group and vehicle control group, respectively. Relative tumor volume (RTV) was calculated using the formula: RTV=Vt/V0, where Vt represents volume on testing day, and V0 represents volume on first day of treatment. […]

[6] abbreviates: aqueous buffer, pH 6.8 buffer solution (20 mM), 25° C., read-out: Solubility at pH 6.8.
The mark [7] stands for this setting: buffer solution (pH 7.6), 25 °C, pH 7.6, aqueous buffer, read-out: Solubility at pH 7.6.

pIC50: −log10 of the molar value. Converted amounts (≈) assume the structure as drawn. Where two headings read alike, the source gives them in different places.

EGFR (T790M/L858R), sequence (P00533 25-1210 T790M/L858R): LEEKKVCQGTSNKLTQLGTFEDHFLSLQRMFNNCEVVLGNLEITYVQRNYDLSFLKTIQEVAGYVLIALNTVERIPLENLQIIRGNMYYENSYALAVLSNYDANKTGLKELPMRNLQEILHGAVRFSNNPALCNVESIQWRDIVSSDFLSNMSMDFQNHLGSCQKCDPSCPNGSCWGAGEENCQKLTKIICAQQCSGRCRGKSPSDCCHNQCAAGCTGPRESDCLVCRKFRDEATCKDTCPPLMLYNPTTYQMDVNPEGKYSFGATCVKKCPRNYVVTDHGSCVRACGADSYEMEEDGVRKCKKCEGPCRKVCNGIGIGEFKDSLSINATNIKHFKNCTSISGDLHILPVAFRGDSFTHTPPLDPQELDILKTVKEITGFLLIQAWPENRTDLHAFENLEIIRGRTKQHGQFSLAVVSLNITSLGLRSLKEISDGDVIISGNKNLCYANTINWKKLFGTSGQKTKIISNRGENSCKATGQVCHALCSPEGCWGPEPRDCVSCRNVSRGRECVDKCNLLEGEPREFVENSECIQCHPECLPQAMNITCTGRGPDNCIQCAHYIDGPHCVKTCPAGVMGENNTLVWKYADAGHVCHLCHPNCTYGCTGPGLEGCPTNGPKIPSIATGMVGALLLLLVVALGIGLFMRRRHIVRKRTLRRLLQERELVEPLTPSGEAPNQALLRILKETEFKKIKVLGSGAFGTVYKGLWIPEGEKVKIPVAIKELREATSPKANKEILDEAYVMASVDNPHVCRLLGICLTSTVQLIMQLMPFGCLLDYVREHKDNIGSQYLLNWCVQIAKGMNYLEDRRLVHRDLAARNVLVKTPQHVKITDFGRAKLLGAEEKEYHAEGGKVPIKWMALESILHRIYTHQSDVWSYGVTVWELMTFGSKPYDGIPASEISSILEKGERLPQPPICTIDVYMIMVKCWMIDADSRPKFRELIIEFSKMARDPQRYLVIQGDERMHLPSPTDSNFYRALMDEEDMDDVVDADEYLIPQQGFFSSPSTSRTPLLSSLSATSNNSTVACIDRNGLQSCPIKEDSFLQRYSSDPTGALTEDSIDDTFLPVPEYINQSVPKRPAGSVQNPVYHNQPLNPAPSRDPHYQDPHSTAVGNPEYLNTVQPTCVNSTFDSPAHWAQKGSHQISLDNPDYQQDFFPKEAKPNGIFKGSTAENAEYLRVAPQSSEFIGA

For the compound `CN(C)C/C=C/C(=O)Nc1cc2c(Nc3ccc(F)c(Cl)c3)ncnc2cc1O[C@H]1CCOC1` [Afatinib, reference compound], in data set [1], the “Body weight change, Day 7” value is listed as −2.2% and the “Body weight change, Day 10” value was 0.4%. Further, the “Day 7 Weight change” value in [2] was −0.9%. In [3], this compound gave an ALT of 49.50 and an AST of 265.67.
Consider `C#Cc1cccc(Nc2ncnc3cc(O[C@H]4CCOC4)c(NC(=O)/C=C/CN(CC)CC)cc23)c1` [Compound 20, (S,E)-4-(diethylamino)-N-(4-((3-ethynylphenyl)amino)-7-((tetrahydrofuran-3-yl)oxy)quinazolin-6-yl)but-2-enamide], for which the pIC50 in the data set with SK—OV-3, in the data set with A549, in the data set with SK—Br-3 and in the data set with NCI—H1975 was > 5.00 in each case. Moreover, in [1], the “Body weight change, Day 7” value was 1.5%. The “Body weight change, Day 10” value in [1] was determined as 4.3%. Besides, in [2], the “Day 7 Weight change” value is recorded as 3.5%. In data set [3], this compound yielded an ALT of 41.67. The same compound registered an AST in data set [3] of 142.33. Moreover, the solubility – broadly, how much of the substance goes into solution per volume – at 30 min is 3370 µg/mL (≈ 6950 µM) in data set [4] (setting [6]) and 238 µg/mL (≈ 490 µM) in data set [4] (setting [7]). In addition, the “Tumor growth inhibition (TGI, %)” value in the data set with A431 cell line xenograft was found to be 94%.
Consider `C#Cc1cccc(Nc2ncnc3cc(O[C@H]4CCOC4)c(NC(=O)/C=C/CN(C)C)cc23)c1` [Compound 13, (S,E)-4-(dimethylamino)-N-(4-((3-ethynylphenyl)amino)-7-((tetrahydrofuran-3-yl)oxy)quinazolin-6-yl)but-2-enamide], for which the pIC50 in the data set with A431 was 5.51; with SK—OV-3 it was > 5.00; in the data set with A549, > 5.00; in the data set on SK—Br-3, > 5.00; in the data set with BT474 it was 7.24; in the data set with NCI—H1975, > 5.00. On EGFR (T790M/L858R), the pIC50 is > 7.00. Besides, the “Day 7 Weight change” value in data set [2] came to 0.1%. Moreover, the solubility at 30 min was 150 µg/mL (≈ 328 µM) in data set [4] (setting [6]) and 25 µg/mL (≈ 54.6 µM) in data set [4] (setting [7]). Besides, in [5], the “efficacy in the NCI—H1975 xenograft study” value was “good efficacy”.
